Experimental data taken from patent EP1270568A1, “1-methyl-4-(3-ethoxy-9h-thioxanthene-ylidene)-piperidine and its use as 5-HT2B and/or H1 antagonist” (Biofrontera Pharmaceuticals AG, priority 2001, dated 2003).

Key:
[1] = target: T1, 5-HT2B receptor (Rattus norvegicus, UniProt P30994); assay: 5-HT2B receptor tissue based functional assay in rat stomach fundus longitudinal muscle; type: cell-based; conditions: dextral shift of agonist concentration-response curve, result in words only
T1 construct: Strips of longitudinal muscle were obtained from the stomach fundus of male Sprague Dawley rats; from tissue; host or cells: rat stomach fundus longitudinal muscle strips (male Sprague Dawley)
Description: The following describes an in vitro functional assay characterizing 5-HT receptors (the putative 5-HT2B) in rat stomach fundus longitudinal muscle (Baxter et al., Brit. J. Pharmacol. 1994, 112, 323-331).
Strips of longitudinal muscle were obtained from the stomach fundus of male Sprague Dawley rats. The mucosa was removed and the strips were suspended with a resting tension of 1 g in oxygenated (95% O2 /5% CO2) Tyrode solution at 37°C. The composition of the Tyrode solution was as follows (mM): NaCl 136.9; KCl 2.7; NaH2PO4 0.4; MgCl2 1.0; glucose 5.6; NaHCO3 11.9; CaCl2 1.8. […]
Effects of drugs were monitored by tension transducers and recorded on polygraph recorders. Tissue response was measured as changes in isometric tension (g). The mean potency (EC50) and maximum response were evaluated by standard iterative curve fitting procedures.
Effects of antagonists were determined by measuring dextral shifts to the agonist concentration-response curve after equilibration of the antagonists for at least 1 h. Concentration ratios were measured at half maximal response levels and single concentration antagonist affinities were determined by the equation: KB =(antagonist concentration)/(concentration ratio) [formula]

[2] = target: T2, human H1 receptor (Homo sapiens, UniProt P35367); assay: Human histamine H1 receptor functional assay ([3H]-inositol phosphate formation); type: cell-based; parameters: expressed in transfected cells; conditions: transiently transfected HEK-293 cells, histamine-stimulated [3H]-inositol phosphate formation; result in words only
Description: For the measurement of the [^3H]-inositol phosphate formation transiently transfected HEK-293 cells were seeded in 24 well plates and labeled to equilibrium with myo-[2-^3H]-inositol (3 ìCi/ml) for an additional 24 hours in growth medium. The medium was aspirated and cells were washed once with 500 µl HBS-buffer (130 mM NaCl, 900 µM NaH2PO4, 800 µM MgSO4, 5.4 mM KCl, 1.8 mM CaCl2, 25 mM Glucose in 20 mM HEPES pH 7.4). Two min after applying 20 mM Li^+ the cells were stimulated by addition of histamine in HBS-buffer. The incubation was stopped by aspiration off the culture medium and the addition of cold 10 mM formic acid. [^3H]inositol phosphates were isolated by anion exchange chromatography (see Seuwen et al., 1988, EMBO J., 7, 161-168). The pKB value was calculated according to the formula: pKB = log (A'/A - 1) - log [B], where A'/A is the ratio of the agonist concentrations (EC50 in the presence / EC50 in the absence of antagonist) and [B] the concentration of antagonist.

[3] = target: T3, human 5-HT2B receptor (Homo sapiens, UniProt P41595); assay: 5-HT2A, 5-HT2B, 5-HT2C receptor binding methods (counter screen for selectivity); parameters: expressed in transfected cells; host or cells: HEK293 cells; conditions: HEK293 cells, [3H]-5HT approximately 0.4 nM, 120 min at 4°C; result in words only
Description: 5-HT2A receptors were labelled with [^3H]ketanserin in human cortex, in HEK293 cells expressing a cloned human 5-HT2A receptor and in HEK293 cells expressing the rat 5-HT2A receptor. For competition binding studies the ligand concentration was approximately 0.1 nM. For saturation binding studies concentrations of radioligand ranged from 0.01 nM to 2.0 nM. Assays were conducted in 0.5 ml of assay buffer (50 mM Tris-HCl, 4 mM calcium chloride, 0.1 % by weight ascorbic acid) (pH 7.4 at 4°C). Non-specifc binding was defined with […] unlabelled ketanserin. After a 60 min incubation at 32°C, membranes were harvested onto filters treated with 0.1 % by weight of polyethylenimine and the bound radioactivity was determined.
Human 5-HT2B receptors were labelled in HEK293 cells as described above. except that the radioligand was [^3H]-5HT and that the assay buffer contained pargyline in a concentration of 10 mM and 0.1 % by weight of ascorbic acid. […]
Competition radioligand binding data was analyzed using a four parameter logistic equation and iterative curve-fitting techniques to obtain estimates of the IC50 and Hill slope. Kd values, determined from saturation binding studies were then used to calculate inhibition dissociation constants (Ki).

[4] = target: T2, human H1 receptor; assay: Cloned human H1, H2, H3 (and H4) receptor binding assay ([3H]-mepyramine for H1); parameters: expressed in transfected cells; host or cells: COS-7 cells, transiently transfected; cell homogenates; conditions: COS-7 cell homogenates, 1 nM [3H]-mepyramine, 30 min at 25°C; result in words only
Description: COS-7 cells were transiently transfected with an expression plasmid pCineohH1, pCineohH2, pCineohH3 and pCineohH4 encoding the human Histamine H1, H2 H3 or H4 receptor, respectively. Transfected cells were harvested after 48 h, homogenized in ice-cold 50 mM Na2/potassium phosphate buffer (pH 7.4) and used for radioligand binding studies. Cell homogenates (40 - 50 µg of protein) were incubated for 30 min at 25°C in 50 mM Na2/potassium phosphate buffer (pH 7.4) in 400 µl with the various concentrations of either [^3H]-mepyramine, [^3H]-thiotidine, [^3H]-R-α-Methylhistamine, and [^3H]-pyramilamine for cells expressing recombinant human H1, H2, H3 and H4 receptors, respectively. The nonspecific binding was defined in the presence of 1 µM mianserin. In displacement studies, cell homogenated were incubated either with 1 nM [^3H]-mepyramine, 15 nM [^3H]-thiotidine, 0.5 nM [^3H]-R-α-Methylhistamine, or 15 nM [^3H]-pyramilamine and increasing concentrations of competing ligands. The incubations were stopped by rapid dilution with 3 ml of ice-cold 50 mM Na2/potassium phosphate buffer (pH 7.4). The bound radioactivity was seperated by filatration through Whatman GF/C filters that had been treated with 0.3 % polyethyleneimine. Filters were washed twice in 3 ml of buffer and radioactivity retained on the filters was measured by liquid scinitllation counting. […]

[5] = target: T3, human 5-HT2B receptor; assay: Cloned human 5-HT2B receptor binding assay ([3H]-5HT); parameters: expressed in transfected cells; host or cells: HEK 293 cells, transiently transfected; membrane preparation; conditions: HEK 293 cells transiently transfected with human 5-HT2B receptor, [3H]5-HT 4 to 5 nM, 37°C 30 min; result in words only
Description: The following describes an in vitro binding assay utilizing cloned 5-HT2B receptors radiolabelled with [^3H]-5HT.
HEK 293 cells transiently transfected with an expression plasmid pXMD1-hu2B encoding the human 5-HT2B receptor (see Schmuck et al., FEBS Lett., 1994, 342, 85-90) were used as described previously (Schmuck et al., Eur. J. Pharmacol., 1996, 8, 959-967). Two days after transfection cells were harvested, pelleted at 500g for 5 min at 4°C, gently resuspended in ice-cold buffer1 (50 mM TRIS pH 7.7, 4 mM CaCl2) and homogenized using a Polytron PT 1200 tissue homogenizer (position 6 for 30 s). Cells were pelleted at 50,000g. 4°C for 10 min, washed with buffer1 and pelleted again. The final pellet was resuspended in incubation buffer (50 mM TRIS pH 7.7, 4 mM CaCl2, 10 µM pargyline and 0.1 % by weight ascorbic acid). The binding assay consisted of 300 µl of membrane suspension (protein concentration = 0.3 to 0.5 mg/ml), 150 µl of competing drug and 50 µl of [^3H]5-HT at a final concentration of 4 to 5 nM. The mixture was incubated at 37°C for 30 min and the assay terminated by rapid filtration and two washing steps with 5 ml of cold 20 mM Tris-HCl pH = 7.5, and 154 mM NaCl over Whatman GFB filters. Filters were counted by liquid scintillation. Non-specific binding was determined in the presence of an excess of 5-HT (100 µM). […] Results are expressed as pKi values. […]

T3 sequence (P41595 whole entry): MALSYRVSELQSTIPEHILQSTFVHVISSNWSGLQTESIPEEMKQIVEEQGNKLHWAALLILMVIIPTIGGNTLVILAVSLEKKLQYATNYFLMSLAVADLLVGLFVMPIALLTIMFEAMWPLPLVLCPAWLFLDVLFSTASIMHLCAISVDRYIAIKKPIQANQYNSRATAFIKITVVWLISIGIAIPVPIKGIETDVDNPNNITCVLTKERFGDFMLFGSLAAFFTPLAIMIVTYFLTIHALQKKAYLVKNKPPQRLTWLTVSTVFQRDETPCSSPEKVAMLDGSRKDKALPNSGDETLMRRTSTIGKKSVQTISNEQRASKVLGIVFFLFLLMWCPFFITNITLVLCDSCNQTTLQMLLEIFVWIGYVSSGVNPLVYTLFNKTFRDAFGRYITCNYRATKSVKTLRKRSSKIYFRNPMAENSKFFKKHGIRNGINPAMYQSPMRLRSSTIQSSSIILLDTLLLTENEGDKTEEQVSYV
T2 sequence (P35367 whole entry): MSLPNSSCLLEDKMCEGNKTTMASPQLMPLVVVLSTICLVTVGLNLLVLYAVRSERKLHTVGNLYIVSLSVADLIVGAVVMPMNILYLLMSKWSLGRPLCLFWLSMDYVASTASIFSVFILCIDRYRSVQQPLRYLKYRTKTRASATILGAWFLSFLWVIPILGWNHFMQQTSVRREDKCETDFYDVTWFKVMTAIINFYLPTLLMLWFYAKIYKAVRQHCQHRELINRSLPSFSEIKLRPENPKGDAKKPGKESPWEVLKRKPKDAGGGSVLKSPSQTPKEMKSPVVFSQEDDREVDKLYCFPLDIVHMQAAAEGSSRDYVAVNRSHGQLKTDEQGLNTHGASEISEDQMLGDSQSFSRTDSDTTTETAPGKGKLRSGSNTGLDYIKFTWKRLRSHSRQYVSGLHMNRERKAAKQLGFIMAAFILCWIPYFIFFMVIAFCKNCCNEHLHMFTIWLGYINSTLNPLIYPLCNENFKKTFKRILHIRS
T1 sequence (P30994 whole entry): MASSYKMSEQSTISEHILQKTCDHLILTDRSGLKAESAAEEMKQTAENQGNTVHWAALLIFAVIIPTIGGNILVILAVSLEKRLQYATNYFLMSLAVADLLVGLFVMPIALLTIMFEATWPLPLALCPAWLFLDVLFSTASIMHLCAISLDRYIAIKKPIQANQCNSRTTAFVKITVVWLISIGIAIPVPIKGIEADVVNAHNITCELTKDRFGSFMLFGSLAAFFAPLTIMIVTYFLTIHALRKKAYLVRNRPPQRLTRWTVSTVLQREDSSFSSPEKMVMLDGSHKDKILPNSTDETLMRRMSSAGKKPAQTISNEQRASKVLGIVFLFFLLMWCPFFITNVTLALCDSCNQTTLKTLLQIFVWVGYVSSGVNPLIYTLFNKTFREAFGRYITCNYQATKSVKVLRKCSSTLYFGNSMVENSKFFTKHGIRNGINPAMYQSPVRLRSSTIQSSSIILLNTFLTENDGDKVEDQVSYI

CCOc1ccc2c(c1)Sc1ccccc1C2=C1CCN(C)CC1 [1-methyl-4-(3-ethoxy-9H-thioxanthene-9-ylidene)-piperidine]
antagonist at the 5-HT2B receptor [1]: found to be an antagonist at the 5-HT2B receptor
antagonist at the human H1 receptor [2]: found to be an antagonist at the human H1 receptor
affinity for the 5-HT2B receptor [3]: found to have affinity for the 5-HT2B receptor
affinity for the human H1 receptor [4]: found to have affinity for the human H1 receptor
affinity for the 5-HT2B receptor [5]: found to have affinity for the 5-HT2B receptor
